Results: the NIST ThermoML archive (doi:10.1021/acs.jced.8b00387)
Where “and” joins values, the source holds several entries; their conditions need not be identical. Equal values may be shown once. Numbers after ± are expanded uncertainties.

Details: for viscosity / mass density / speed of sound: 102 kPa, Liquid; for viscosity: Concentric cylinders viscometry; for mass density: Vibrating tube method; for speed of sound: Frequency=3 MHz, Single path-length method; for surface tension liquid-gas: Pendant drop shape

CC(CC(C)(C)C)CC(C)(C)CC(C)(C)C (stereo not given) [2,2,4,4,6,8,8-heptamethylnonane]
Details | mass density [kg/m3] | speed of sound [m/s] | surface tension liquid-gas [mN/m] | viscosity [mPa·s]
253.15 K | 811.4 ± 2 | – | – | 14.09 ± 0.19
288.15 K | 787.76 ± 0.71 | 1305.1 ± 1.2 | – | –
293.15 K | 784.41 ± 0.71 | 1285.9 ± 1.2 | – | 3.75 ± 0.03
294.7 K | – | – | 24.2 ± 0.3 | –
303.15 K | 777.73 ± 0.72 | 1248.3 ± 1.2 | – | 2.97 ± 0.03
313.15 K | 770.99 ± 0.72 | 1211.7 ± 1.2 | – | 2.4 ± 0.02
323.15 K | 764.27 ± 0.72 | 1175.9 ± 1.2 | – | 1.97 ± 0.02
333.15 K | 757.53 ± 0.72 | 1141.3 ± 1.2 | – | 1.65 ± 0.02

CC(CC(C)(C)C)CC(C)(C)C [2,2,4,6,6-pentamethylheptane]
Details | mass density [kg/m3] | speed of sound [m/s] | surface tension liquid-gas [mN/m] | viscosity [mPa·s]
253.15 K | 775.8 ± 2 | – | – | 3.08 ± 0.06
288.15 K | 748.8 ± 0.7 | 1223.7 ± 1.3 | – | –
293.15 K | 745.2 ± 0.7 | 1203.8 ± 1.3 | – | 1.31 ± 0.02
294 K | – | – | 22.1 ± 0.4 | –
303.15 K | 737.9 ± 0.7 | 1164.7 ± 1.3 | – | 1.13 ± 0.02
313.15 K | 730.6 ± 0.7 | 1126.5 ± 1.3 | – | 0.955 ± 0.021
323.15 K | 723.2 ± 0.7 | 1089.1 ± 1.3 | – | 0.849 ± 0.021
333.15 K | 715.8 ± 0.7 | 1052.7 ± 1.3 | – | 0.744 ± 0.021

CCCCc1ccccc1 [butylbenzene]
Details | mass density [kg/m3] | speed of sound [m/s] | surface tension liquid-gas [mN/m] | viscosity [mPa·s]
253.15 K | 892.6 ± 2 | – | – | 2.21 ± 0.06
288.15 K | 864.47 ± 0.71 | 1373.7 ± 1.1 | – | –
293.15 K | 860.17 ± 0.71 | 1353.2 ± 1.1 | – | 1 ± 0.02
295 K | – | – | 29 ± 0.3 | –
303.15 K | 852.13 ± 0.71 | 1314.3 ± 1.1 | – | 0.88 ± 0.021
313.15 K | 844.07 ± 0.71 | 1276.1 ± 1.1 | – | 0.775 ± 0.021
323.15 K | 835.98 ± 0.71 | 1238.4 ± 1.1 | – | 0.687 ± 0.021
333.15 K | 827.86 ± 0.71 | 1201.5 ± 1.1 | – | 0.615 ± 0.021

CCCCCCc1ccccc1 [hexylbenzene]
Details | mass density | speed of sound | surface tension liquid-gas [mN/m] | viscosity
253.15 K | 888.9 ± 0.4 kg/m3 and 889.1 ± 2 kg/m3 | – | – | 4.56 ± 0.07 mPa·s and 4.63 ± 0.04 mPa·s
288.15 K | 862.3 ± 0.4 kg/m3 and 862.4 ± 0.8 kg/m3 | 1395.8 ± 1.6 m/s and 1395.6 ± 1.6 m/s | – | –
293.15 K | 858.5 ± 0.4 kg/m3 and 858.6 ± 0.8 kg/m3 | 1376 ± 1.6 m/s and 1376.5 ± 1.6 m/s | – | 1.64 ± 0.02 mPa·s and 1.66 ± 0.02 mPa·s
295 K | – | – | 29.3 ± 0.4 | –
303.15 K | 850.9 ± 0.4 kg/m3 and 851 ± 0.8 kg/m3 | 1338.1 ± 1.6 m/s and 1338.7 ± 1.6 m/s | – | 1.39 ± 0.02 mPa·s and 1.41 ± 0.01 mPa·s
313.15 K | 843.3 ± 0.4 kg/m3 and 843.4 ± 0.8 kg/m3 | 1301.1 ± 1.6 m/s and 1301.6 ± 1.6 m/s | – | 1.17 ± 0.02 mPa·s and 1.19 ± 0.01 mPa·s
323.15 K | 845.7 ± 0.4 kg/m3 and 835.8 ± 0.8 kg/m3 | 1264.7 ± 1.6 m/s and 1265.3 ± 1.6 m/s | – | 1.03 ± 0.02 mPa·s and 1.04 ± 0.01 mPa·s
333.15 K | 828.1 ± 0.4 kg/m3 and 828.2 ± 0.8 kg/m3 | 1229.4 ± 1.6 m/s and 1229.8 ± 1.6 m/s | – | 0.9 ± 0.02 mPa·s
